Laboratory results: PubChem BioAssay AID1919007 (Molecular Pharmacology Branch, DTP, NCI, 2023)

Tested on: A498 complex spheroids with HUVEC/MSC, growth
Assay: Anticancer human tumor A498 cell line growth inhibition [AhR];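 also: seven day exposure starting three days after spheroid seeding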;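 as to viability, T/C: luminescence signal used as a surrogate for viable cells; luminescence viability scaled so 100% equals DMSO vehicle wells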
Conditions: for IC50: curve of first compound; for viability, T/C: stronger effect = lower value
Method in brief: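 Spheroids combined tumor cells with HUVEC endothelial cells and human MSCs as stroma. AhR antagonists were paired with standard or investigational drugs, each dosed in half-log steps down from near clinical Cmax, or from 10 microM where Cmax was unknown.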

[1] = second compound 0.1 µM, first compound 0.0316 µM
[2] = second compound 0.1 µM, first compound 0.1 µM
[3] = second compound 0.1 µM, first compound 0.316 µM
[4] = second compound 0.1 µM, first compound 1 µM
[5] = second compound 0.1 µM, first compound 3.16 µM
[6] = second compound 0.1 µM, first compound 10 µM
[7] = second compound 0.316 µM, first compound 0.0316 µM
[8] = second compound 0.316 µM, first compound 0.1 µM
[9] = second compound 0.316 µM, first compound 0.316 µM
[10] = second compound 0.316 µM, first compound 1 µM
[11] = second compound 0.316 µM, first compound 3.16 µM
[12] = second compound 0.316 µM, first compound 10 µM
[13] = second compound 1 µM, first compound 0.0316 µM
[14] = second compound 1 µM, first compound 0.1 µM
[15] = second compound 1 µM, first compound 0.316 µM
[16] = second compound 1 µM, first compound 1 µM
[17] = second compound 1 µM, first compound 3.16 µM
[18] = second compound 1 µM, first compound 10 µM
[19] = second compound 3.16 µM, first compound 0.0316 µM
[20] = second compound 3.16 µM, first compound 0.1 µM
[21] = second compound 3.16 µM, first compound 0.316 µM
[22] = second compound 3.16 µM, first compound 1 µM
[23] = second compound 3.16 µM, first compound 3.16 µM
[24] = second compound 3.16 µM, first compound 10 µM
[25] = second compound 10 µM, first compound 0.0316 µM
[26] = second compound 10 µM, first compound 0.1 µM
[27] = second compound 10 µM, first compound 0.316 µM
[28] = second compound 10 µM, first compound 1 µM
[29] = second compound 10 µM, first compound 3.16 µM
[30] = second compound 10 µM, first compound 10 µM

Compound | IC50 (second compound 0.1 µM) | IC50 (second compound 0.316 µM) | IC50 (second compound 1 µM) | IC50 (second compound 3.16 µM) | IC50 (second compound 10 µM) | viability, T/C [1] | viability, T/C [2] | viability, T/C [3] | viability, T/C [4] | viability, T/C [5] | viability, T/C [6] | viability, T/C [7] | viability, T/C [8] | viability, T/C [9] | viability, T/C [10] | viability, T/C [11] | viability, T/C [12] | viability, T/C [13] | viability, T/C [14] | viability, T/C [15] | further results
CC(C)c1c(-c2ccccc2)nc2c(C#N)c[nH]n2c1=O + CC(CO)NC(=O)c1cc(-c2ccc(Cl)cc2)nn(-c2cnn(C)c2)c1=O | > 10000 nM | > 10000 nM | > 10000 nM | > 10000 nM | > 10000 nM | 94.6% | 93.3% | 93.3% | 96.4% | 101% | 103% | 91.9% | 90.5% | 94.6% | 83.1% | 87.3% | 88.5% | 85.8% | 92.6% | 90.7% | viability, T/C [16]: 76.5%; viability, T/C [17]: 87.1%; viability, T/C [18]: 90.7%; viability, T/C [19]: 81.5%; viability, T/C [20]: 86.1%; viability, T/C [21]: 96.2%; viability, T/C [22]: 75.3%; viability, T/C [23]: 75.9%; viability, T/C [24]: 81.5%; viability, T/C [25]: 61.8%; viability, T/C [26]: 63.3%; viability, T/C [27]: 70.5%; viability, T/C [28]: 58.9%; viability, T/C [29]: 64%; viability, T/C [30]: 72.2%
COc1ccc([C@@H](O)c2cc(-c3ncnc4cc(N5CCOCC5)ccc34)c(F)cc2Cl)nn1 + CC(CO)NC(=O)c1cc(-c2ccc(Cl)cc2)nn(-c2cnn(C)c2)c1=O | 346 nM | 307 nM | 307 nM | 230 nM | 74.4 nM | 83.6% | 79.5% | 49.9% | 26.2% | 15.1% | 9.67% | 78% | 73% | 48.4% | 23.9% | 13.6% | 8.99% | 77.7% | 73.2% | 48.7% | viability, T/C [16]: 22.8%; viability, T/C [17]: 14.3%; viability, T/C [18]: 9.42%; viability, T/C [19]: 70.9%; viability, T/C [20]: 67.9%; viability, T/C [21]: 42.7%; viability, T/C [22]: 20.8%; viability, T/C [23]: 12.9%; viability, T/C [24]: 10%; viability, T/C [25]: 55.3%; viability, T/C [26]: 49.3%; viability, T/C [27]: 33.1%; viability, T/C [28]: 21.1%; viability, T/C [29]: 12.3%; viability, T/C [30]: 7.61%
COc1cccc2c1C(=O)c1c(O)c3c(c(O)c1C2=O)CC(O)(C(=O)CO)CC3OC1CC(N)C(O)C(C)O1 (stereo not given) + Cc1ccccc1N=Nc1ccc(NC(=O)c2ccnn2C)c(C)c1 | 290 nM | 397 nM | 369 nM | 397 nM | 400 nM | 61.7% | 52.4% | 49.6% | 23.8% | 1.17% | 0.89% | 65.6% | 61.6% | 55.7% | 25.5% | 1.09% | 1.35% | 58.6% | 60.4% | 52.9% | viability, T/C [16]: 25.7%; viability, T/C [17]: 1.54%; viability, T/C [18]: 0.92%; viability, T/C [19]: 59.9%; viability, T/C [20]: 62.6%; viability, T/C [21]: 52.9%; viability, T/C [22]: 30.6%; viability, T/C [23]: 2.05%; viability, T/C [24]: 0.61%; viability, T/C [25]: 61.7%; viability, T/C [26]: 57.5%; viability, T/C [27]: 55.4%; viability, T/C [28]: 27%; viability, T/C [29]: 1.19%; viability, T/C [30]: 1.56%
